Like-named read-outs stand apart in the source and are kept apart here. One block for each compound: values may come before it.
What was measured:
rabbit hearts = system: rabbit hearts; design: method as in Krieg et al., 2009; Cohen et al., 2010; settings: administered 5 min prior to reperfusion following 30 min regional ischemia; ref Krieg et al., 2009; Cohen et al., 2010; cited from earlier work
dogs = system: dogs; design: method as in Korkmaz et al., 2009; settings: administered 5 min prior to reperfusion following 60 min global cardiac ischemia; ref Korkmaz et al., 2009; cited from earlier work
rat hearts = system: rat hearts; design: method as in Krieg et al., 2009; settings: administered 5 min prior to reperfusion following 30 min regional ischemia; ref Krieg et al., 2009; cited from earlier work
SHR-SP isolated aorta = experiment: vasoactivity of SHR-SP isolated aorta (ND, HSFD and after chronic treatment); design: species or system rat; settings: for EC50: Rattus norvegicus
Description: In separate studies, endothelial function was assessed following chronic (7 week) BAY 60-4552 or GSK2181236A treatment in SHR-SP on HSFD. SHR-SP fed either normal or HSFD served as controls. Rats were anesthetized and thoracic aorta were isolated and treated with KCl and phenylephrine as described above. Cumulative concentration-response curves to phenylephrine were obtained by adding 0.5 log unit increments (1 nM to 3 μM). Following several washes with KHB, each vessel was contracted to equilibrium with 0.3 μM phenylephrine and tone was reversed by adding cumulative amounts of carbachol at 0.5 log unit intervals (10 nM to 30 μM). Following several KHB washes, the tissues were again contracted to equilibrium with 0.3 μM phenylephrine and tone was reversed by adding cumulative amounts of SNP at 0.5 log unit intervals (0.1 nM to 3 μM). In separate tissues from both the normal and HSFD SHR-SP control groups, the direct vasodilatory effects of BAY 60-4552 and GSK2181236A were investigated. Contractile tone induced by 0.3 μM phenylephrine was reversed by adding cumulative concentrations of BAY 60-4552 or GSK2181236A to the tissue baths at log increments (0.1 nM to 10 μM).

Structure (SMILES): O=C(O)CCCCN(CCc1ccccc1OCc1ccc(CCc2ccccc2)cc1)Cc1ccc(C(=O)O)cc1 [BAY 58-2667]
- infarct size (rabbit hearts): decreased infarct size
- cardiac function (dogs): improved cardiac function
- infarct size (rat hearts): decreased infarct size

- EC50 (SHR-SP isolated aorta; aorta from HSFD SHR-SP, read-out: Carbachol EC50 (vasodilation)): 260 ± 74 nM
- EC50 (SHR-SP isolated aorta; aorta from ND SHR-SP, read-out: Carbachol EC50 (vasodilation)): 119 ± 15 nM
Structure (SMILES): C[N+](C)(C)CCOC(N)=O [Carbachol, carbachol]
- Carbachol Emax (SHR-SP isolated aorta; aorta from HSFD SHR-SP): 47 ± 11 % reversal of PE tone
- Carbachol Emax (SHR-SP isolated aorta; aorta from ND SHR-SP): 85 ± 3 % reversal of PE tone

- EC50 (SHR-SP isolated aorta; aorta from HSFD SHR-SP, read-out: Phenylephrine EC50 (contraction)): 72 ± 11 nM
- EC50 (SHR-SP isolated aorta; aorta from ND SHR-SP, read-out: Phenylephrine EC50 (contraction)): 67 ± 6 nM
Structure (SMILES): CNC[C@H](O)c1cccc(O)c1 [Phenylephrine, phenylephrine]
- Phenylephrine Emax (SHR-SP isolated aorta; aorta from HSFD SHR-SP): 83 ± 10 % KCl
- Phenylephrine Emax (SHR-SP isolated aorta; aorta from ND SHR-SP): 90 ± 4 % KCl

— article PMC3389674, “Comparison of Soluble Guanylate Cyclase Stimulators and Activators in Models of Cardiovascular Disease Associated with Oxidative Stress” (Frontiers in Pharmacology, 2012)
